Experimental data published in article PMC9977294, “A parasitic fungus employs mutated eIF4A to survive on rocaglate-synthesizing Aglaia plants” (eLife, 2023).
Where “and” joins values, the source holds several entries; their conditions need not be identical. Identical values can stand only once.

Assays:
Assay in all cases: Fluorescence polarization assay, FAM-labeled [AG]10 RNA and recombinant eIF4A
Assay type in all cases: binding
[1] = target: Ophiocordyceps sp. BRM1 eIF4A iso4 WT Gly172; settings: for Fluorescence polarization signal, FAM-labeled [AG]10 RNA, single replicates / Fluorescence polarization signal, FAM-labeled [AG]10 RNA, Mean: ADP + Pi, aglafoline; for Fluorescence polarization signal, FAM-labeled [AG]10 RNA, single replicates: Replicate 1-3; for Fluorescence polarization signal, FAM-labeled [AG]10 RNA, Mean: mean of 3 replicates
Description: (§1) The fluorescence polarization assay was performed as previously described ([Chen et al., 2021]). […] After incubation at room temperature for 30 min, the mixture was transferred to a black 384-well microplate (Corning), and the fluorescence polarization was measured by an Infinite F-200 PRO (Tecan). Under ADP + Pi conditions, 1 mM ADP (Fujifilm Wako Chemicals) and 1 mM Na2HPO4 were used as substitutes for AMP-PNP. The data were fitted to the Hill equation to calculate Kd values and visualized by Igor Pro v8.01 (WaveMetrics).

[2] = target: Ophiocordyceps sp. BRM1 eIF4A iso4 Gly172His; settings: for Fluorescence polarization signal, FAM-labeled [AG]10 RNA, single replicates / Fluorescence polarization signal, FAM-labeled [AG]10 RNA, Mean: ADP + Pi, aglafoline; for Fluorescence polarization signal, FAM-labeled [AG]10 RNA, single replicates: Replicate 1-3; for Fluorescence polarization signal, FAM-labeled [AG]10 RNA, Mean: mean of 3 replicates
Description: as §1

[3] = target: Ophiocordyceps sp. BRM1 eIF4A iso4 Gly172Phe; settings: for Fluorescence polarization, Replicate 1-3 / fluorescence polarization, Mean: [AG]10 RNA, ADP + Pi, Aglafoline
Description: as §1

[4] = [AG]10 10 nM, ADP + Pi (1 mM each), compound 50 µM, read-out: Kd between eIF4A protein and RNA

SMILES: COC(=O)[C@H]1[C@@H](O)[C@@]2(O)c3c(OC)cc(OC)cc3O[C@@]2(c2ccc(OC)cc2)[C@@H]1c1ccccc1 [Aglafoline, methyl rocaglate]
- Kd [1, 4]: 2600 ± 400 nM
- Fluorescence polarization signal, FAM-labeled [AG]10 RNA, single replicates ([1]; protein concentration 0.01 μM): 0.02459 and 0.04098 and 0.008197
- Fluorescence polarization signal, FAM-labeled [AG]10 RNA, Mean ([1]; protein concentration 0.01 μM): 0.02459
- Fluorescence polarization signal, FAM-labeled [AG]10 RNA, single replicates ([1]; protein concentration 0.05 μM): 0.03279 and -0.008197 and -0.07377
- Fluorescence polarization signal, FAM-labeled [AG]10 RNA, Mean ([1]; protein concentration 0.05 μM): -0.01639
- Fluorescence polarization signal, FAM-labeled [AG]10 RNA, single replicates ([1]; protein concentration 0.075 μM): -0.04918 and -0.03279 and 0.01639
- Fluorescence polarization signal, FAM-labeled [AG]10 RNA, Mean ([1]; protein concentration 0.075 μM): -0.02186
- Fluorescence polarization signal, FAM-labeled [AG]10 RNA, single replicates ([1]; protein concentration 0.1 μM): -0.02459 and -0.04098 and -0.05738
- Fluorescence polarization signal, FAM-labeled [AG]10 RNA, Mean ([1]; protein concentration 0.1 μM): -0.04098
- Fluorescence polarization signal, FAM-labeled [AG]10 RNA, single replicates ([1]; protein concentration 0.5 μM): 0.1557 and -0.1066 and 0.01639
- Fluorescence polarization signal, FAM-labeled [AG]10 RNA, Mean ([1]; protein concentration 0.5 μM): 0.02186
- Fluorescence polarization signal, FAM-labeled [AG]10 RNA, single replicates ([1]; protein concentration 0.75 μM): 0.1967 and 0.03279 and 0.1721
- Fluorescence polarization signal, FAM-labeled [AG]10 RNA, Mean ([1]; protein concentration 0.75 μM): 0.1339
- Fluorescence polarization signal, FAM-labeled [AG]10 RNA, single replicates ([1]; protein concentration 1 μM): 0.09836 and 0.06557 and 0.1557
- Fluorescence polarization signal, FAM-labeled [AG]10 RNA, Mean ([1]; protein concentration 1 μM): 0.1066
- Fluorescence polarization signal, FAM-labeled [AG]10 RNA, single replicates ([1]; protein concentration 5 μM): 0.582 and 0.6803 and 0.5902
- Fluorescence polarization signal, FAM-labeled [AG]10 RNA, Mean ([1]; protein concentration 5 μM): 0.6175
- Fluorescence polarization signal, FAM-labeled [AG]10 RNA, single replicates ([1]; protein concentration 7.5 μM): 0.5902 and 0.6311 and 0.7541
- Fluorescence polarization signal, FAM-labeled [AG]10 RNA, Mean ([1]; protein concentration 7.5 μM): 0.6585
- Fluorescence polarization signal, FAM-labeled [AG]10 RNA, single replicates ([1]; protein concentration 10 μM): 0.6557 and 0.7049 and 0.7131
- Fluorescence polarization signal, FAM-labeled [AG]10 RNA, Mean ([1]; protein concentration 10 μM): 0.6913
- Fluorescence polarization signal, FAM-labeled [AG]10 RNA, single replicates ([1]; protein concentration 25 μM): 0.7787 and 0.8279 and 0.877
- Fluorescence polarization signal, FAM-labeled [AG]10 RNA, Mean ([1]; protein concentration 25 μM): 0.8279
- Kd [2, 4]: 1500 ± 140 nM
- Fluorescence polarization signal, FAM-labeled [AG]10 RNA, single replicates ([2]; protein concentration 0.01 μM): -0.03825 and 0.04372 (2×)
- Fluorescence polarization signal, FAM-labeled [AG]10 RNA, Mean ([2]; protein concentration 0.01 μM): 0.01639
- Fluorescence polarization signal, FAM-labeled [AG]10 RNA, single replicates ([2]; protein concentration 0.05 μM): 0.04372 and 0.1011 and 0.0765
- Fluorescence polarization signal, FAM-labeled [AG]10 RNA, Mean ([2]; protein concentration 0.05 μM): 0.07377
- Fluorescence polarization signal, FAM-labeled [AG]10 RNA, single replicates ([2]; protein concentration 0.075 μM): 0.0847 and 0.06011 and 0.03552
- Fluorescence polarization signal, FAM-labeled [AG]10 RNA, Mean ([2]; protein concentration 0.075 μM): 0.06011
- Fluorescence polarization signal, FAM-labeled [AG]10 RNA, single replicates ([2]; protein concentration 0.1 μM): 0.0847 and 0.06011 and 0.06831
- Fluorescence polarization signal, FAM-labeled [AG]10 RNA, Mean ([2]; protein concentration 0.1 μM): 0.07104
- Fluorescence polarization signal, FAM-labeled [AG]10 RNA, single replicates ([2]; protein concentration 0.5 μM): 0.3388 and 0.429 and 0.3634
- Fluorescence polarization signal, FAM-labeled [AG]10 RNA, Mean ([2]; protein concentration 0.5 μM): 0.377
- Fluorescence polarization signal, FAM-labeled [AG]10 RNA, single replicates ([2]; protein concentration 0.75 μM): 0.5191 and 0.4372 and 0.429
- Fluorescence polarization signal, FAM-labeled [AG]10 RNA, Mean ([2]; protein concentration 0.75 μM): 0.4617
- Fluorescence polarization signal, FAM-labeled [AG]10 RNA, single replicates ([2]; protein concentration 1 μM): 0.5765 and 0.7158 and 0.5847
- Fluorescence polarization signal, FAM-labeled [AG]10 RNA, Mean ([2]; protein concentration 1 μM): 0.6257
- Fluorescence polarization signal, FAM-labeled [AG]10 RNA, single replicates ([2]; protein concentration 5 μM): 1.011 and 0.9208 and 0.888
- Fluorescence polarization signal, FAM-labeled [AG]10 RNA, Mean ([2]; protein concentration 5 μM): 0.9399
- Fluorescence polarization signal, FAM-labeled [AG]10 RNA, single replicates ([2]; protein concentration 7.5 μM): 1.019 and 0.9372 and 0.9699
- Fluorescence polarization signal, FAM-labeled [AG]10 RNA, Mean ([2]; protein concentration 7.5 μM): 0.9754
- Fluorescence polarization signal, FAM-labeled [AG]10 RNA, single replicates ([2]; protein concentration 10 μM): 1.126 and 1.06 and 1.027
- Fluorescence polarization signal, FAM-labeled [AG]10 RNA, Mean ([2]; protein concentration 10 μM): 1.071
- Fluorescence polarization signal, FAM-labeled [AG]10 RNA, single replicates ([2]; protein concentration 25 μM): 1.208 and 1.167 and 1.15
- Fluorescence polarization signal, FAM-labeled [AG]10 RNA, Mean ([2]; protein concentration 25 μM): 1.175
- Fluorescence polarization signal, FAM-labeled [AG]10 RNA, single replicates ([2]; protein concentration 50 μM): 1.191 and 1.306 and 1.257
- Fluorescence polarization signal, FAM-labeled [AG]10 RNA, Mean ([2]; protein concentration 50 μM): 1.251
- Kd [3, 4]: 110 ± 21 nM
- Fluorescence polarization, Replicate 1-3 ([3]; protein concentration 0.01 μM): 0.1148 and 0.008197 and 0.04098
- fluorescence polarization, Mean ([3]; protein concentration 0.01 μM): 0.05464
- Fluorescence polarization, Replicate 1-3 ([3]; protein concentration 0.05 μM): 0.2869 (2×) and 0.3279
- fluorescence polarization, Mean ([3]; protein concentration 0.05 μM): 0.3005
- Fluorescence polarization, Replicate 1-3 ([3]; protein concentration 0.075 μM): 0.3689 and 0.3279 and 0.2869
- fluorescence polarization, Mean ([3]; protein concentration 0.075 μM): 0.3279
- Fluorescence polarization, Replicate 1-3 ([3]; protein concentration 0.1 μM): 0.5164 and 0.3115 and 0.2787
- fluorescence polarization, Mean ([3]; protein concentration 0.1 μM): 0.3689
- Fluorescence polarization, Replicate 1-3 ([3]; protein concentration 0.5 μM): 0.9262 and 0.9426 and 0.8197
- fluorescence polarization, Mean ([3]; protein concentration 0.5 μM): 0.8962
- Fluorescence polarization, Replicate 1-3 ([3]; protein concentration 0.75 μM): 0.9508 and 0.8443 and 0.8934
- fluorescence polarization, Mean ([3]; protein concentration 0.75 μM): 0.8962
- Fluorescence polarization, Replicate 1-3 ([3]; protein concentration 1 μM): 0.7869 and 0.877 and 0.7623
- fluorescence polarization, Mean ([3]; protein concentration 1 μM): 0.8087
- Fluorescence polarization, Replicate 1-3 ([3]; protein concentration 5 μM): 0.9016 and 0.9426 and 0.8852
- fluorescence polarization, Mean ([3]; protein concentration 5 μM): 0.9098
- Fluorescence polarization, Replicate 1-3 ([3]; protein concentration 7.5 μM): 0.8934 and 1.016 and 0.9344
- fluorescence polarization, Mean ([3]; protein concentration 7.5 μM): 0.9481
- Fluorescence polarization, Replicate 1-3 ([3]; protein concentration 10 μM): 1.057 and 0.8934 and 0.877
- fluorescence polarization, Mean ([3]; protein concentration 10 μM): 0.9426
- Fluorescence polarization, Replicate 1-3 ([3]; protein concentration 25 μM): 0.8852 and 1.033 and 1.057
- fluorescence polarization, Mean ([3]; protein concentration 25 μM): 0.9918
